Measurements: PMC6458216, “In vitro reconstitution and characterisation of the oxidative D-xylose pathway for production of organic acids and alcohols” (AMB Express, 2019)

Tests used:
Type in all cases: biochemical
Cc XylC = target: T1, Cc XylC (Caulobacter vibrioides, UniProt Q9A9Z1); assay: CD ([…] nm) and 1H-NMR lactone ring-opening assay; details: CD: 1 mM lactone, 10 mM Tris-HCl pH 6-8, 25 °C; NMR: 2 mM lactone, pH 6.8, 22 °C, 100 µM metal ions or EDTA
T1 construct: full length, untagged (C-terminal Strep-tag II removed), synthetic codon-optimised gene in E. coli BL21(DE3), DEAE purified, mainly monomer

Ec FucO = target: T2, Ec FucO (Escherichia coli, UniProt P0A9S1); assay: purified enzyme within 4-enzyme cascade, NADH oxidation at […] nm; details: glycolaldehyde formed by Ec YagE from 1 mM xylonolactone via cascade; 2 mM NADH, 50 mM Tris-HCl pH 7.0, 22 °C
T2 sequence (P0A9S1 1-382): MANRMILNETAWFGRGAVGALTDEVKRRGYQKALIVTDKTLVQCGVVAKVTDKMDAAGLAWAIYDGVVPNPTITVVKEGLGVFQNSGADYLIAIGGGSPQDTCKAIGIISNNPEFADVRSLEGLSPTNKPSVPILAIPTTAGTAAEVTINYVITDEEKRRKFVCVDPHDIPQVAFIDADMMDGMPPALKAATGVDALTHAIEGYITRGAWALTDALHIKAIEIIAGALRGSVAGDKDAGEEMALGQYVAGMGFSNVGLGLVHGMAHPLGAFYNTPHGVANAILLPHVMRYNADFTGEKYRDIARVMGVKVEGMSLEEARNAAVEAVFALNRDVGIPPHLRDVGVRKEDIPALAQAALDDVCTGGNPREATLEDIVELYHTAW

Ab AraE = Ab AraE (Azospirillum brasilense, UniProt Q1JUP4); assay: NADH formation at […] nm, steady-state kinetics; details: 50 mM Tris-HCl pH 7.0, 2 mM NAD+, 1 mM DTT, glycolaldehyde 0-2 mM
Ec AldA = Ec AldA (Escherichia coli, UniProt P25553); assay: NADH formation at […] nm, steady-state kinetics; details: 50 mM Tris-HCl pH 7.0, 2 mM NAD+, 1 mM DTT, glycolaldehyde 0-2 mM
Sequence of Ec AldA (P25553 whole entry): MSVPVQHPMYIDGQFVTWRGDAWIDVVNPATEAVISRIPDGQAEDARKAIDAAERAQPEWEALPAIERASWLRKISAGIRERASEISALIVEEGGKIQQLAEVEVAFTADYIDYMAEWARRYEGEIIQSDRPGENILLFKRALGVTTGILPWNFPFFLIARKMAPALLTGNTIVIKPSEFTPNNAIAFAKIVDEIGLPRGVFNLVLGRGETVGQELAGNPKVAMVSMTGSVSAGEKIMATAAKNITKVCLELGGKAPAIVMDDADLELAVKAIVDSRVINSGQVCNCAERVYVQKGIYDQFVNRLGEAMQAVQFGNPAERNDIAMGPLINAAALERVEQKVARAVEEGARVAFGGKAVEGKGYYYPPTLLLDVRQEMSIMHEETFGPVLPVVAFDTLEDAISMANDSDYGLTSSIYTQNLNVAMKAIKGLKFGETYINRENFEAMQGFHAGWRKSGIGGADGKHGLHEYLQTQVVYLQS

Sequence of Ab AraE (Q1JUP4 whole entry): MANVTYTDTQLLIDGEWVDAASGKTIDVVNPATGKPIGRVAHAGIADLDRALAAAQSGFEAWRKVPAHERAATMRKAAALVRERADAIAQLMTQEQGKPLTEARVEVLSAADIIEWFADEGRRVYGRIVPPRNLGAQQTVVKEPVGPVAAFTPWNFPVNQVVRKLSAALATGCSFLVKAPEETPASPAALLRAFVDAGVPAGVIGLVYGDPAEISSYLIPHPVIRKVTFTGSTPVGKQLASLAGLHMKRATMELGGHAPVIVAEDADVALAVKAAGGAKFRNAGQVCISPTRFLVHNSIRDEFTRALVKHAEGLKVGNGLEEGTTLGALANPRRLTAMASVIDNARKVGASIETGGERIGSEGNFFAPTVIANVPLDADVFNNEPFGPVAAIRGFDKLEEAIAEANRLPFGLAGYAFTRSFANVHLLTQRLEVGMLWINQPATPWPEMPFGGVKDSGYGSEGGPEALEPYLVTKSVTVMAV
T1 sequence (Q9A9Z1 whole entry): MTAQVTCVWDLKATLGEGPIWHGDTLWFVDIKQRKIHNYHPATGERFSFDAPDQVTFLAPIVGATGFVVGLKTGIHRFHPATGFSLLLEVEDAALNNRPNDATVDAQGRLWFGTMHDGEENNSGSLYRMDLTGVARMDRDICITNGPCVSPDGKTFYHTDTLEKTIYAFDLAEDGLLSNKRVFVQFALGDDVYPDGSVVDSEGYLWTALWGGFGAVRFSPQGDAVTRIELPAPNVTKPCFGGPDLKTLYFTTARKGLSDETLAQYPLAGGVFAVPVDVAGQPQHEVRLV

Compound | CD (220 nm) and 1H-NMR lactone ring-opening assay (Cc XylC) | purified enzyme within 4-enzyme cascade, NADH oxidation at 340 nm (Ec FucO) | NADH formation at 340 nm, steady-state kinetics (Ab AraE) | NADH formation at 340 nm, steady-state kinetics (Ec AldA)
O=C1O[C@H](CO)[C@H](O)[C@H]1O [D-xylono-1,4-lactone] | Cc XylC was able to open the xylonolactone without addition of any metal |  |  | 
NC(=O)C1=CN([C@@H]2O[C@H](COP(=O)(O)OP(=O)(O)OC[C@H]3O[C@@H](n4cnc5c(N)ncnc54)[C@H](O)[C@@H]3O)[C@@H](O)[C@H]2O)C=CC1 [NADH] |  | the production of ethylene glycol was followed through generation of NAD^+ |  | 
O=CCO [glycolaldehyde] |  | an increase of the enzyme concentration resulted in an increase in the production levels | we compare the glycolaldehyde dependent activity of Ec AldA and Ab AraE | we compare the glycolaldehyde dependent activity of Ec AldA and Ab AraE
